Tests used:
Type in all cases: biochemical
G106V mutant of p110α [1] = biological target: T1, G106V mutant of p110α (Homo sapiens, UniProt P42336, G106V); test: ADP-Glo kinase assay, oncogenic mutant G106V; conditions: compared with pY
T1 construct: Full-length p110α was expressed in a complex with full-length p85α (for biochemistry and HDX-MS); 6xHis followed by TEV protease site (N); made in house; host or cells: Spodoptera frugiperda Sf9 (plasmid JB35)
Procedure: (§1) Co-stimulation of 1938 with pY led to an additive activatory effect for G106V, but not for the N345K and E545K mutants (FIG. 1f/FIG. 22f).
(§2) Kinase reactions were performed with ADP-Glo kinase assay kit (Promega Corporation). The enzyme, substrate and compounds were diluted in reaction buffer (20 mM HEPES, 50 mM NaCl, 50 mM KCl, 3 mM MgCl2, 1 mM EGTA, 1 mM TCEP, pH 7.4). Final concentrations of PI3Kα and PI3Kδ used were 25 nM and 50 nM for PI3Kβ. Liposomes (5% brain PI(4,5)P2, 20% brain phosphatidylserine, 45% brain phosphatidylethanolamine, 15% brain phosphatidylcholine, 10% cholesterol, 5% sphingomyelin (Avanti Polar Lipids)) were used at a final concentration of 1 mg/ml. The pY sequence is ESDGG(pY)[…](pY)[…].
(§3) For characterisation of the effects of 1938 on in vitro PI3K enzymology, all reactions were performed at room temperature with 384 white-polystyrene plates (Corning #3574). The final DMSO concentration in the assay was between 0.5%-1.8%. The reaction mixture contained 2 μl PI3K enzyme, 2 μl compound and/or pY and 2 μl of liposome substrate mixed with ATP. ATP was used at a final concentration of 200 μM, unless otherwise stated. The enzyme and compounds were pre-incubated for 10 min prior to addition of substrate. […] For enzyme kinetic calculations, data was expressed as velocity (pmol of ADP generated/sec). […]

N345K mutant of p110α = biological target: T2, N345K mutant of p110α (Homo sapiens, UniProt P42336, N345K); test: ADP-Glo kinase assay, oncogenic mutant N345K; conditions: compared with pY
T2 construct: Full-length p110α was expressed in a complex with full-length p85α (for biochemistry and HDX-MS); 6xHis followed by TEV protease site (N); made in house; host or cells: Spodoptera frugiperda Sf9 (plasmid OP661)
Procedure: as §1, §2, §3

G106V mutant of p110α [2] = biological target: T1, G106V mutant of p110α; test: FRET membrane binding, oncogenic mutant G106V
Procedure: as §1
Membrane binding assays were performed as previously published (Burke, J. E. et al. Proc Natl Acad Sci USA 109, 15259-15264 (2012)). Briefly, liposomes were prepared with 5% (w/v) brain PtdIns(4,5)P2, 20% brain phosphatidylserine, 35% brain phosphatidylethanolamine, 15% brain phosphatidylcholine, 10% cholesterol, 5% sphingomyelin, and 10% dansyl-phosphatidylserine (Avanti Polar Lipids). PI3Kα was used at a final concentration of 0.5 μM. Protein solutions were preincubated with 10 μM pY or compounds for 10 min before addition of liposomes. Liposomes were used at a final concentration of 50 μg/ml. The reaction mixture contained 5 μl enzyme, 2 μl compound and 3 μl liposomes, all diluted in 30 mM HEPES, 50 mM NaCl, pH 7.4. The reaction was allowed to proceed for 10 min at room temperature in 384 black-polystyrene plates (Corning #3544) on an orbital shaker at 200 rpm. FRET signals were measured using PHERAStar (BMG) with a 280 nm excitation filter with 350 nm and 520 nm emission filters to measure Dansyl-PS FRET emissions, respectively. FRET signal shown as I-I0, where I is the intensity at 520 nm, and 10 is the intensity at 520 nm for the solution in the absence of protein.

[3] = system: 133 protein kinases and 7 lipid kinases; test: SelectScreen kinase profiling panel
Procedure: 133 protein kinases and 7 lipid kinases were counterscreened, with […] used at 1 μM, using the Adapta, Lantha and Z-LYTE assays (SelectScreen Kinase Profiling Service; Thermofisher—experimental details of these assays can be found here: https://www.thermofisher.com/uk/en/home/industrial/pharma-biopharma/drug-discovery-development/target-and-lead-identification-and-validation/kinasebiology/kinase-activity-assays.html. The tree representation in KinMap generated courtesy of Cell Signaling Technology, Inc. (www.cellsignal.com). mTORC1 (mTOR/RAPTOR/LST8) protein complex and ATM kinase and substrates were produced as previously described (Anandapadamanaban, M. et al. Science (New York, NY 366, 203-210 (2019); Baretic, D. et al. Sci Adv 3, e1700933 (2017). Screening of 1938 was conducted using SuperSep Phos-Tag 50 μmol/l 100×100×6.6 mm 17-well (192-18001/199-18011) gels. For ATM assays, 100 nM ATM was incubated for 30 min at 30° C. with 5 μM GST-p53 and 1 mM ATP, in the absence or presence of 200 μM 1938 in ATM Kinase Buffer (50 mM HEPES pH 7.5, 100 mM NaCl, 10% glycerol, 2 mM […], 5 mM MgCl2). […] Gels were then stained using InstantBlue™ Coomassie stain, and then quantified using BioRad Image Lab Software. […]

T1 sequence (P42336 whole entry G106V): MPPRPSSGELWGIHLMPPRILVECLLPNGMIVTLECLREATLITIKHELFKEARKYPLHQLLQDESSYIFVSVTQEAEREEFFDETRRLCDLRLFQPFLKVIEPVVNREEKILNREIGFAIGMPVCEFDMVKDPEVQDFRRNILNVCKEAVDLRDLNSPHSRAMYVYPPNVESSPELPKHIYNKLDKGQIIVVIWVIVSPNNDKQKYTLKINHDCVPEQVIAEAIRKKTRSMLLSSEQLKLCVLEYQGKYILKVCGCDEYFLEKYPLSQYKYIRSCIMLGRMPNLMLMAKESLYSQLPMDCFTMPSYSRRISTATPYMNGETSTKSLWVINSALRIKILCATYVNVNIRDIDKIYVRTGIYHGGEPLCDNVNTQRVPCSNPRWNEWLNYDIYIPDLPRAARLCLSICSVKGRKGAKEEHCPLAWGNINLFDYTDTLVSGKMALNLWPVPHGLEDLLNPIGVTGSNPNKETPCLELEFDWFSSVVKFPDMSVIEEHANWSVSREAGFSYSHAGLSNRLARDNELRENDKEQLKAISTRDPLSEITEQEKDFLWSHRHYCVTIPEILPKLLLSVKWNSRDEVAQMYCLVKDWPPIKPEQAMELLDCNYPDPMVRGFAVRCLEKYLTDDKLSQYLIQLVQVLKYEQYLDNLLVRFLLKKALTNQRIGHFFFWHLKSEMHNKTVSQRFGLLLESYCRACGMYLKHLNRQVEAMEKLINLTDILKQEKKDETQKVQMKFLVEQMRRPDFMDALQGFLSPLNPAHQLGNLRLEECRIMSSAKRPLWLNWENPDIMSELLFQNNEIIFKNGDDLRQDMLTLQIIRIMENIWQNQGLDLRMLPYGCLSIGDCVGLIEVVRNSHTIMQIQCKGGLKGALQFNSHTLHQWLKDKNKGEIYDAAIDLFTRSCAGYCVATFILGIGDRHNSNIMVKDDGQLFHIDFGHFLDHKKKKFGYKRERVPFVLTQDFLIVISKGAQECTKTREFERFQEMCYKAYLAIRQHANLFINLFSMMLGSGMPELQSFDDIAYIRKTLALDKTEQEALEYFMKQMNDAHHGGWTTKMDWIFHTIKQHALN
T1 sequence (P27986 whole entry partner): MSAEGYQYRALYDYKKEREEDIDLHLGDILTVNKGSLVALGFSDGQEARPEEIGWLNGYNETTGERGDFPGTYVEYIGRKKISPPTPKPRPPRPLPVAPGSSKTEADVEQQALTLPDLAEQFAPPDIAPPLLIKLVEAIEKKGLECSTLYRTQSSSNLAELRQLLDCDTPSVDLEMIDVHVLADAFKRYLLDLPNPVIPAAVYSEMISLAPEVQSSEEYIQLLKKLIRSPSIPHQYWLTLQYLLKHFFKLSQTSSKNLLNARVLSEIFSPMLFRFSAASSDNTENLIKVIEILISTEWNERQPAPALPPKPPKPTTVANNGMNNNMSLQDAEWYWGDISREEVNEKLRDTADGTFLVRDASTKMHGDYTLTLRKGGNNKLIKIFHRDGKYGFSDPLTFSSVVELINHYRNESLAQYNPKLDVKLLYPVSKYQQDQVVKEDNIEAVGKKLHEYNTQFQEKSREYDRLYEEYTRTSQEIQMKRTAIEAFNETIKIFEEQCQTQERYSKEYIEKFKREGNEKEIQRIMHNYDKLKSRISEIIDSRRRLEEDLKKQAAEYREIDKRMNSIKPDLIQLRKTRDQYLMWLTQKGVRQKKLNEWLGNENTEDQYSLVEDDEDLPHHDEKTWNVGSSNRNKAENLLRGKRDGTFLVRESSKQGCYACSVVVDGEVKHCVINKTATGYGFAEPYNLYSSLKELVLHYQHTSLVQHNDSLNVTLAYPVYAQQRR
T2 sequence (P42336 whole entry N345K): as the sequence (P42336 whole entry G106V) above, with V106G, N345K counted along it
T2 sequence (P27986 whole entry partner): as the sequence (P27986 whole entry partner) above

CCN1CCN(c2ccc(Nc3cc(Nc4cccc5c4N(C(C)=O)CC5)ccn3)cc2)CC1 [Example 1938]
activation of G106V mutant (G106V mutant of p110α [1]): levels comparable with stimulation with pY
activation of N345K mutant (N345K mutant of p110α): levels comparable with stimulation with pY
membrane binding of G106V (G106V mutant of p110α [2]): did not increase
number of protein kinases inhibited between 25-50% ([3]; 1 μM of 1938): 13
activity of other PI3K isoforms and PI3K-related kinases in the panel ([3]; PI3Kβ, PI3Kγ, PI3Kδ, PI3K-C2α, Vps34, PI4Kβ, mTOR, DNA-PK, 1 μM): did not affect

Source: US20250263404A1, “AMINOPYRIDINES AS ACTIVATORS OF PI3 KINASE” (UCL Business Ltd, priority 2021, published 2025)
